Patent US20220401414A1, “TREATMENT AND PREVENTION OF A NEURODEGENERATIVE DISORDER” (Inflazome Limited, priority 2019, published 2022)

Assay: Study A: blood-brain barrier penetration, striatal MetaQuant microdialysis in healthy mice after oral dosing
Assay type: in vivo, C57B1/6 mice
Settings: for average peak levels in left and right striatal dialysate: MetaQuant dialysate, not corrected for recovery; for time of average peak levels after compound administration: striatal dialysate
Method: The present study was designed to determine the free concentration of the compound of formula (I) in the left and right striatum of freely-moving adult male mice after oral administration.
Adult male C57B1/6 mice (22-28 g; Envigo, the Netherlands) were used for the experiments. Following arrival, animals were housed in groups of 5 in polypropylene cages (40×50×20 cm) with wire mesh top in a temperature (22±2° C.) and humidity (55±15%) controlled environment on a 12 hour light cycle (07.00-19.00). Following surgery, animals were housed individually (cages 30×30×40 cm). Standard diet (SDS Diets, RM1 PL) and domestic quality mains water were available ad libitum.
Mice were anesthetized using isoflurane (2% and 500 mL/min O2). Before surgery, Finadyne (1 mg/kg, s.c.) was administered for analgesia during surgery and the post-surgical recovery period. A mixture of bupivacaine and epinephrine was used for local analgesia of the incision site.
The animals were placed in a stereotaxic frame (Kopf instruments, USA). MetaQuant microdialysis probes with a 3 mm exposed polyacrylonitrile membrane (MQ-PAN 33) were implanted bilaterally into the left and right striatum (coordinates for the tip of the probe: AP=+0.8 mm (to bregma), ML=+/−1.7 mm (to midline), DV=−4.0 mm (to dura) with an angle of 0° and the incisor bar set at 0.0 mm. All coordinates were based on “The mouse brain in stereotaxic coordinates” by Paxinos and Franklin (2008). The probes were attached to the skull with a stainless-steel screw and dental cement.
The monosodium salt of the compound of formula (I) was formulated in sterilized tap water at concentrations (with respect to the non-salt form) of 0.2 and 4 mg/mL for oral dosing at 5 mL/kg; 1 mg/kg and 20 mg/kg, respectively.
The MetaQuant microdialysis probes were connected with flexible PEEK tubing (Western Analytical Products Inc. USA; PK005-020) to a microperfusion pump (Harvard) and perfused with a slow flow of artificial CSF (perfusate), containing 147 mM NaCl, 3.0 mM KCl, 1.2 mM CaCl2, and 1.2 mM MgCl2, at a flow rate of 0.12 μL/min and a carrier flow of UP+0.02 M FA+0.04% ascorbic acid at o.8 μL/min. After a minimum of two hours of prestabilisation, microdialysis samples were collected in 60 minute intervals. Following collection of two baseline samples, the compound of formula (I) (1 or 20 mg/kg in sterilised tap water) was administered orally at t=0 minutes. Samples were collected into mini-vials (Microbiotech/se AB, Sweden; 4001029) using an automated fraction collector (UV 8301501, TSE, Univentor, Malta). At the end of the experiment, the animals were sacrificed.
Microdialysate samples from MetaQuant probes contained a nominal volume of 55.2 μL dialysate. Levels of the compound of formula (I) in MetaQuant microdialysate samples were quantified by LC-MS/MS.
The dialysate samples were mixed with acetonitrile and an aliquot of this mixture was injected into the LC system by an automated sample injector (SIL-20AD, Shimadzu, Japan). Calibrators and in-run QC samples were prepared in analytical dialysate of the same composition as the microdialysate samples. […]
Suitable in-run calibration curves were fitted using weighted (1/x) regression and the sample concentrations were determined using these calibration curves. […]

## CC(C)n1ccc(S(=O)(=O)NC(=O)Nc2c3c(cc4c2CCC4)CCC3)n1 [compound of formula (I)]
1 mg/kg oral (monosodium salt in sterilised tap water)
  average peak levels in left and right striatal dialysate: 12 to 13 nM
1 mg/kg oral
  time of average peak levels after compound administration: 5 h
20 mg/kg oral (monosodium salt in sterilised tap water)
  average peak levels in left and right striatal dialysate: 201 to 243 nM
20 mg/kg oral
  time of average peak levels after compound administration: 6 h
Oral administration
  blood-brain barrier penetration: cross the blood-brain barrier following oral administration
